“And” between values parts separate entries of the source, which are not always exact repeats. Identical values can stand only once. Inconclusive results and toxic doses are left out. How the source made its calls: active means survival T/C of 150% or more; inactive means T/C below 125% in these data.
System: CD2F1 mice, L1210 leukemia ip, survival T/C
Experiment: NCI In Vivo Anticancer Drug Screen. Data for tumor model L1210 Leukemia (intraperitoneal) in CD2F1 (CDF1) mice
Conditions: higher = longer survival
Protocol: The antitumor activity of compounds was measured in mice bearing transplantable tumors. Survival or tumor size were measured and the results are expressed as the measurement made in the treated group (T) divided by the measurement made in the vehicle treated control group (C). The tumor model used in this assay is L1210 Leukemia (intraperitoneal) in CD2F1 (CDF1) mice

Measured: T/C

O=c1[nH]c(=O)n(C2CC(O)C(CO)O2)cc1F (stereo not drawn)
inactive: endpoint: mean survival time, dose: 5.0 mg/kg/injection, schedule: Q#A X018 (ip), vehicle: saline 115 % of control | endpoint: mean survival time, dose: 9.0 mg/kg/injection, schedule: Q#A X018 (ip), vehicle: saline 121 % of control | endpoint: mean survival time, dose: 12.5 mg/kg/injection, schedule: Q03HX024 (oral), vehicle: saline 101 % of control | endpoint: mean survival time, dose: 16.0 mg/kg/injection, schedule: Q#A X018 (ip), vehicle: saline 121 % of control | endpoint: mean survival time, dose: 25.0 mg/kg/injection, schedule: Q01DX005 (ip), vehicle: water 108 % of control | endpoint: mean survival time, dose: 25.0 mg/kg/injection, schedule: Q03HX008 (oral), vehicle: saline 107 % of control | endpoint: mean survival time, dose: 25.0 mg/kg/injection, schedule: Q03HX016 (ip), vehicle: saline 96 % of control | endpoint: mean survival time, dose: 26.0 mg/kg/injection, schedule: Q#A X018 (ip), vehicle: saline 123 % of control | endpoint: mean survival time, dose: 31.3 mg/kg/injection, schedule: Q01DX005 (ip), vehicle: saline 121 % of control | endpoint: mean survival time, dose: 37.5 mg/kg/injection, schedule: Q03DX003 (ip), vehicle: water 121 % of control | endpoint: mean survival time, dose: 37.5 mg/kg/injection, schedule: Q04DX003 (ip), vehicle: water 100 % of control | endpoint: mean survival time, dose: 43.0 mg/kg/injection, schedule: Q#A X018 (ip), vehicle: saline 108 % of control | endpoint: mean survival time, dose: 50.0 mg/kg/injection, schedule: Q01DX005 (ip), vehicle: water 110 % of control | endpoint: mean survival time, dose: 50.0 mg/kg/injection, schedule: Q01DX009 (oral), vehicle: saline 119 % of control | endpoint: mean survival time, dose: 50.0 mg/kg/injection, schedule: Q03HX008 (oral), vehicle: saline 111 % of control | endpoint: mean survival time, dose: 50.0 mg/kg/injection, schedule: Q03HX016 (ip), vehicle: saline 111 % of control | endpoint: mean survival time, dose: 50.0 mg/kg/injection, schedule: Q03HX024 (oral), vehicle: saline 107 % of control | endpoint: mean survival time, dose: 72.0 mg/kg/injection, schedule: Q#A X018 (ip), vehicle: saline 106 % of control | endpoint: mean survival time, dose: 75.0 mg/kg/injection, schedule: Q01DX007 (ip), vehicle: water 100 % of control | endpoint: mean survival time, dose: 75.0 mg/kg/injection, schedule: Q01DX009 (ip), vehicle: water 110 % of control | endpoint: mean survival time, dose: 75.0 mg/kg/injection, schedule: Q03DX003 (ip), vehicle: water 122 % of control | endpoint: mean survival time, dose: 75.0 mg/kg/injection, schedule: Q04DX003 (ip), vehicle: water 111 % of control | endpoint: mean survival time, dose: 100.0 mg/kg/injection, schedule: Q01DX005 (ip), vehicle: water 110 % of control | endpoint: mean survival time, dose: 100.0 mg/kg/injection, schedule: Q03HX024 (oral), vehicle: saline 92 % of control | endpoint: mean survival time, dose: 100.0 mg/kg/injection, schedule: Q04DX003 (oral), vehicle: saline 114 % of control | endpoint: mean survival time, dose: 120.0 mg/kg/injection, schedule: Q#A X018 (ip), vehicle: saline 94 % of control | endpoint: mean survival time, dose: 125.0 mg/kg/injection, schedule: Q01DX001 (ip), vehicle: saline 101 % of control | endpoint: mean survival time, dose: 125.0 mg/kg/injection, schedule: Q01DX001 (oral), vehicle: saline 101 % of control | endpoint: mean survival time, dose: 125.0 mg/kg/injection, schedule: Q01DX001 (sc), vehicle: saline 109 % of control | endpoint: mean survival time, dose: 125.0 mg/kg/injection, schedule: Q01DX009 (oral), vehicle: saline 121 % of control | endpoint: mean survival time, dose: 125.0 mg/kg/injection, schedule: Q03HX008 (ip), vehicle: saline 120 % of control | endpoint: mean survival time, dose: 125.0 mg/kg/injection, schedule: Q03HX016 (ip), vehicle: saline 110 % of control | endpoint: mean survival time, dose: 125.0 mg/kg/injection, schedule: Q04DX003 (ip), vehicle: saline 119 % of control | endpoint: mean survival time, dose: 125.0 mg/kg/injection, schedule: Q08DX002 (ip), vehicle: saline 100 % of control | endpoint: mean survival time, dose: 150.0 mg/kg/injection, schedule: Q01DX007 (ip), vehicle: water 100 % of control | endpoint: mean survival time, dose: 150.0 mg/kg/injection, schedule: Q01DX009 (ip), vehicle: water 100 % of control | endpoint: mean survival time, dose: 200.0 mg/kg/injection, schedule: Q01DX001 (oral), vehicle: saline 113 % of control | endpoint: mean survival time, dose: 200.0 mg/kg/injection, schedule: Q01DX005 (ip), vehicle: water 87 % of control | endpoint: mean survival time, dose: 200.0 mg/kg/injection, schedule: Q01DX009 (oral), vehicle: saline 114 % of control | endpoint: mean survival time, dose: 200.0 mg/kg/injection, schedule: Q03HX008 (oral), vehicle: saline 94 % of control | endpoint: mean survival time, dose: 200.0 mg/kg/injection, schedule: Q03HX016 (ip), vehicle: saline 118 % of control | endpoint: mean survival time, dose: 200.0 mg/kg/injection, schedule: Q08DX002 (oral), vehicle: saline 103 % of control | endpoint: mean survival time, dose: 200.0 mg/kg/injection, schedule: Q#A X018 (ip), vehicle: saline 88 % of control | endpoint: mean survival time, dose: 250.0 mg/kg/injection, schedule: Q01DX001 (ip), vehicle: saline 111 % of control | endpoint: mean survival time, dose: 250.0 mg/kg/injection, schedule: Q01DX001 (oral), vehicle: saline 108 % of control | endpoint: mean survival time, dose: 250.0 mg/kg/injection, schedule: Q01DX001 (sc), vehicle: saline 123 % of control | endpoint: mean survival time, dose: 250.0 mg/kg/injection, schedule: Q01DX009 (ip), vehicle: saline 108 % of control | endpoint: mean survival time, dose: 250.0 mg/kg/injection, schedule: Q01DX009 (oral), vehicle: saline 121 % of control | endpoint: mean survival time, dose: 250.0 mg/kg/injection, schedule: Q01DX009 (sc), vehicle: saline 122 % of control | endpoint: mean survival time, dose: 250.0 mg/kg/injection, schedule: Q08DX002 (ip), vehicle: saline 115 % of control | endpoint: mean survival time, dose: 320.0 mg/kg/injection, schedule: Q01DX009 (ip), vehicle: saline 102 % of control | endpoint: mean survival time, dose: 400.0 mg/kg/injection, schedule: Q01DX001 (oral), vehicle: saline 117 % of control | endpoint: mean survival time, dose: 400.0 mg/kg/injection, schedule: Q01DX009 (oral), vehicle: saline 109 % of control | endpoint: mean survival time, dose: 400.0 mg/kg/injection, schedule: Q04DX003 (oral), vehicle: saline 119 % of control | endpoint: mean survival time, dose: 400.0 mg/kg/injection, schedule: Q08DX002 (oral), vehicle: saline 107 % of control | endpoint: mean survival time, dose: 500.0 mg/kg/injection, schedule: Q01DX001 (oral), vehicle: saline 121 % of control | endpoint: mean survival time, dose: 500.0 mg/kg/injection, schedule: Q03HX024 (ip), vehicle: saline 121 % of control | endpoint: mean survival time, dose: 800.0 mg/kg/injection, schedule: Q04DX003 (oral), vehicle: saline 110 % of control | endpoint: mean survival time, dose: 1000.0 mg/kg/injection, schedule: Q03HX024 (ip), vehicle: saline 92 % of control | endpoint: mean survival time, dose: 1000.0 mg/kg/injection, schedule: Q04DX003 (ip), vehicle: saline 98 % of control | endpoint: mean survival time, dose: 1600.0 mg/kg/injection, schedule: Q01DX001 (oral), vehicle: saline 103 % of control | endpoint: mean survival time, dose: 1600.0 mg/kg/injection, schedule: Q08DX002 (oral), vehicle: saline 97 % of control | endpoint: median survival time, dose: 51.8 mg/kg/injection, schedule: Q04DX002 (ip), vehicle: saline 107 % of control | endpoint: median survival time, dose: 86.4 mg/kg/injection, schedule: Q04DX002 (ip), vehicle: saline 114 % of control | endpoint: median survival time, dose: 144.0 mg/kg/injection, schedule: Q04DX002 (ip), vehicle: saline 121 % of control | endpoint: median survival time, dose: 400.0 mg/kg/injection, schedule: Q04DX002 (ip), vehicle: saline 105 % of control
active: endpoint: mean survival time, dose: 80.0 mg/kg/injection, schedule: Q01DX009 (ip), vehicle: saline 167 % of control | endpoint: mean survival time, dose: 125.0 mg/kg/injection, schedule: Q03HX024 (ip), vehicle: saline 163 % of control | endpoint: mean survival time, dose: 160.0 mg/kg/injection, schedule: Q01DX009 (ip), vehicle: saline 151 % of control | endpoint: mean survival time, dose: 250.0 mg/kg/injection, schedule: Q03HX024 (ip), vehicle: saline 155 % of control | endpoint: mean survival time, dose: 250.0 mg/kg/injection, schedule: Q04DX003 (ip), vehicle: saline 162 % of control | endpoint: mean survival time, dose: 500.0 mg/kg/injection, schedule: Q03HX016 (ip), vehicle: saline 154 % of control | endpoint: mean survival time, dose: 500.0 mg/kg/injection, schedule: Q08DX002 (ip), vehicle: saline 164 % of control | endpoint: mean survival time, dose: 800.0 mg/kg/injection, schedule: Q08DX002 (oral), vehicle: saline 156 % of control | endpoint: mean survival time, dose: 1000.0 mg/kg/injection, schedule: Q01DX001 (oral), vehicle: saline 151 % of control | endpoint: mean survival time, dose: 1000.0 mg/kg/injection, schedule: Q01DX001 (sc), vehicle: saline 159 % of control | endpoint: mean survival time, dose: 1000.0 mg/kg/injection, schedule: Q03HX008 (ip), vehicle: saline 157 % of control

CCOC(=O)C(Cl)C(=O)OCC
inactive: endpoint: mean survival time, dose: 100.0 mg/kg/injection, schedule: Q01DX001 (ip), vehicle: saline with Tween-80 108 % of control and 109 % of control | endpoint: mean survival time, dose: 200.0 mg/kg/injection, schedule: Q01DX001 (ip), vehicle: saline with Tween-80 104 % of control and 105 % of control | endpoint: mean survival time, dose: 400.0 mg/kg/injection, schedule: Q01DX001 (ip), vehicle: saline with Tween-80 120 % of control and 111 % of control

N#Cc1ccc(C(=O)CC(O)(C(F)(F)F)C(F)(F)F)cc1
inactive: endpoint: mean survival time, dose: 100.0 mg/kg/injection, schedule: Q04DX003 (ip), vehicle: saline with Tween-80 101 % of control | endpoint: mean survival time, dose: 200.0 mg/kg/injection, schedule: Q04DX003 (ip), vehicle: saline with Tween-80 101 % of control | endpoint: mean survival time, dose: 400.0 mg/kg/injection, schedule: Q04DX003 (ip), vehicle: saline with Tween-80 98 % of control
